Values of other authors in patent USRE38623E1, “Stabilization of ascorbic acid, ascorbic acid derivatives and/or extracts containing ascorbic acid for topical use” (Topix Pharmaceuticals, Inc., priority 1996, dated 2004).
Like-named read-outs stand apart in the source and are kept apart here.

potency after storage (Darr '043 FIG. 1, after seven weeks, starting from 100 percent, L-ascorbic acid concentration of 1 percent): 70%
drop in potency (Darr '043 FIG. 1, seven weeks at room temperature, L-ascorbic concentrations of 3, 5 and 10 percent): less than 10%
drop in potency (Darr '043 FIG. 1, seven weeks, L-ascorbic acid concentration of 1 percent): approximately 30%
lost potency (Darr '043 FIG. 2, all four samples, eight weeks at room temperature, stored in the dark): ≥ 10%
SMILES: O=C1O[C@H]([C@@H](O)CO)C(O)=C1O [L-ascorbic acid]
